“And” between values parts separate entries of the source, which are not always exact repeats. Equal values may be shown once.
Experiments:
SIRT2 = target: T1, SIRT2 (Homo sapiens, UniProt Q8IXJ6); assay: In vitro SIRT2 activity assay; conditions: IC50 SIRT2, mean ± SD of three independent experiments
T1 sequence (Q8IXJ6 1-389): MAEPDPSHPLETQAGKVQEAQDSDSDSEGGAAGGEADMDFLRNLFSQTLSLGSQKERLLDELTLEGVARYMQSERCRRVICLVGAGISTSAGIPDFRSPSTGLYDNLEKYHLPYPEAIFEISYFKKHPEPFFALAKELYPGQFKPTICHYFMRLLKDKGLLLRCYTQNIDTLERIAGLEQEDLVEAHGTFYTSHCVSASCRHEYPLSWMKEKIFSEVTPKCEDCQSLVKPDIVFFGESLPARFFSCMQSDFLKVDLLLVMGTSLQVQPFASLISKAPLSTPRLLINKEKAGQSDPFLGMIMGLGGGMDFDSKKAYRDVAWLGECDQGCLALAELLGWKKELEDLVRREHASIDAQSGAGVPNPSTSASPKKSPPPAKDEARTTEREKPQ

HDAC6 = target: T2, HDAC6 (Homo sapiens, UniProt Q9UBN7); assay: Selective in vitro HDAC activity assay, recombinant HDAC6; format: biochemical
T2 sequence (Q9UBN7 1-1215): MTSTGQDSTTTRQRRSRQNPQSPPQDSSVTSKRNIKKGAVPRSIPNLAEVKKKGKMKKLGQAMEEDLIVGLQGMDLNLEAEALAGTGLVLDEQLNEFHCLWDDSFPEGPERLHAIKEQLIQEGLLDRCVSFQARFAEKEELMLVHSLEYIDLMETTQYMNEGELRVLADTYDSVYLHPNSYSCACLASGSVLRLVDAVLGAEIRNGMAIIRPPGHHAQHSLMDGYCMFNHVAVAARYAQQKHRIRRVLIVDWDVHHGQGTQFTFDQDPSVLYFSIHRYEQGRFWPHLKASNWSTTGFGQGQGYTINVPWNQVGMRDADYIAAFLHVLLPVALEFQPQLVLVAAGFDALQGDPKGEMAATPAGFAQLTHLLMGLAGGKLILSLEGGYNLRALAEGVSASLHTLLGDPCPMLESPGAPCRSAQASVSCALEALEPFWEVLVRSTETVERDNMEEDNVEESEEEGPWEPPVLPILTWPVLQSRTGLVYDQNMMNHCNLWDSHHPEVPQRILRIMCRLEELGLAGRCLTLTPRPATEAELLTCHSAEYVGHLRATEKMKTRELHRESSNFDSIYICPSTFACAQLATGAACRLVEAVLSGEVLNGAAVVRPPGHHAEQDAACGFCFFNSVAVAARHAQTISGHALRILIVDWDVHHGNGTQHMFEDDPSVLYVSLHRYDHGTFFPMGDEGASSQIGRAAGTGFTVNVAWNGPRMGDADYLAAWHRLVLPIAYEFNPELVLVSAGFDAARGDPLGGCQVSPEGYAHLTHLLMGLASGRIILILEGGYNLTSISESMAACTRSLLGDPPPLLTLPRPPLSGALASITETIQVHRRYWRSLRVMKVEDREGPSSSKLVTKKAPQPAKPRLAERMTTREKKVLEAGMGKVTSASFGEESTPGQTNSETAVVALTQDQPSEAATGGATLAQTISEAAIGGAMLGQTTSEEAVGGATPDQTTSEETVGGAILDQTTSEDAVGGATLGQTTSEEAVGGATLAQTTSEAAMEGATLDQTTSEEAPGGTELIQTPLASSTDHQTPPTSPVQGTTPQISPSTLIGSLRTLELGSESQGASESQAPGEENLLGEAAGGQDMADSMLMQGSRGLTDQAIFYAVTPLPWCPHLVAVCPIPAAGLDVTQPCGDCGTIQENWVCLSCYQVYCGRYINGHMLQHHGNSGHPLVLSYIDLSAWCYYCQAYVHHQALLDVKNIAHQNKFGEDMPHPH
Experimental: (§1) (a) In vitro total HDAC activity was evaluated using K-562 nuclear extracts in the presence of various concentrations of eurochevalierine. (b) Selective in vitro HDAC activity assays were carried out using selected recombinant HDAC proteins in the presence of various concentrations of eurochevalierine. Results are reported as percent of DMSO vehicle control and expressed as the mean ± SD of three independent experiments. * and ** indicate p < 0.05 and p < 0.01 versus untreated cells, respectively.

[1] = system: PBMCs from healthy donors; assay: Viability of PBMCs from healthy donors (Trypan Blue exclusion); format: cell-based; conditions: up to 48 h, up to 100 µM
Experimental: The viability of PBMCs from healthy donors was assessed after 24 and 48 h of treatment at the indicated concentration of eurochevalierine. Results correspond to mean ± SD of three independent experiments.
PBMCs were isolated as previously reported.
PBMCs and CD34^+ cells were processed through a semi-automated image-based cell analyzer (Cedex XS Innovatis, Roche, Luxembourg), which provides information about cell concentration and viability based on the Trypan Blue exclusion method.

A-549 cells = assay: Acetylation of sirtuin targets by Western blot, A-549; format: cell-based, human; conditions: A-549, 5 and 50 µM, 8 h
Experimental: (§2) Figure 5 Effect of eurochevalierine on the acetylation status of sirtuin targets. SK-MEL-28, U-373, and A-549 cells were treated with 5 and 50 µM eurochevalierine (EU) for 8 h. Acetylation of histone H4 (AcH4), histone H3 at lysine 56 (AcH3K56), and α-tubulin (Ac α-tubulin) was analyzed via Western blot. β-actin and histone H1 were used as loading controls for the analysis of total and acid extracts, respectively. SAHA (S, 1 µM) was used as a reference HDAC inhibitor. Blots are representative of three independent experiments.
(§3) Total proteins were extracted using the MPER® reagent (Thermo-scientific, Erembodegem-Aalst, Belgium) supplemented by 1× protease inhibitor cocktail (Complete EDTA-free, Roche, Prophac, Luxembourg, Luxembourg) according to manufacturer’s instructions. Histones were extracted as previously described. Western blots were carried out as previously reported.
(§4) Corresponding secondary antibodies were from Santa Cruz Biotechnology.

U-373 cells [2] = assay: Acetylation of sirtuin targets by Western blot, U-373; format: cell-based, human; conditions: U-373, 5 and 50 µM, 8 h
Experimental: as §2, §3, §4

U-373 cells [3] = assay: Sub-G1 fraction by PI flow cytometry, U-373; format: cell-based, human; conditions: U-373, 50 µM, 72 h
Experimental: Figure 2 Effect of eurochevalierine on cell cycle distribution. Cells were treated with 50 µM eurochevalierine for 72 h and then stained with propidium iodide (PI), and DNA content was measured by flow cytometry. (a) Cell cycle distribution profile in A-549 cells. Results of three independent experiments are represented on the same graph. (b) Quantification of the number of cells in sub-G1 fraction as a percentage of the total cell population. Results are expressed as mean ± SD of at least three independent experiments.
Cells were collected, fixed, and stained with the APO AF TUNEL detection kit (BD, Erembodegem, Belgium) allowing analysis of both apoptosis and cell cycle at the same time. The experiment was conducted accordingly to the procedure of the manufacturer. Data were obtained through flow cytometry with a Cell Lab Quanta apparatus (Analis, Suarlee, Belgium).

HDAC2 = HDAC2 (Homo sapiens, UniProt Q92769); assay: Selective in vitro HDAC activity assay, recombinant HDAC2; format: biochemical; conditions: 100 µM
HDAC2, sequence (Q92769 whole entry): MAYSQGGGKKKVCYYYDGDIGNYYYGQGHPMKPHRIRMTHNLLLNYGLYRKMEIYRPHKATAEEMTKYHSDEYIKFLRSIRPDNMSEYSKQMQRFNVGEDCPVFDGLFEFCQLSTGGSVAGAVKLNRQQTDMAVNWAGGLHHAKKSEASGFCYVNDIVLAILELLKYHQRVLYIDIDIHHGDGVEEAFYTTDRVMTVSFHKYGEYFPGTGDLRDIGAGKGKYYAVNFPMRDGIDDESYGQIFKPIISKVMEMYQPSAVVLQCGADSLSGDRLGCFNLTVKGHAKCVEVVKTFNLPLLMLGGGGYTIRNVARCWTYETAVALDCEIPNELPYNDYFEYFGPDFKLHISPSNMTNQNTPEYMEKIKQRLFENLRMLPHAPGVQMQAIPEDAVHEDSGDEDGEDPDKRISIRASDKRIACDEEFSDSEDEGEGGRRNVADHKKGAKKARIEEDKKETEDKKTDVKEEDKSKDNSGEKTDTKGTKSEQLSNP
Experimental: as §1

C=C(C)[C@@H]1CC[C@@H](C)[C@@]2(O)[C@@H]1C=C(C)[C@@H](OC(C)=O)[C@@H]2OC(=O)[C@H](CC(=O)c1ccccc1NC)NC=O [Eurochevalierine, eurochevalierine]
IC50 (SIRT2): 10 µM and ~10 µM and 10.2 µM | inhibition at 100 µM (HDAC6): ~36% | acute toxicity on viability of PBMCs [1]: does not trigger any acute toxicity | acetylation of sirtuin targets (AcH4, AcH3K56, Ac α-tubulin) (A-549 cells): robust and dose-dependent increase | acetylation of sirtuin targets (AcH4, AcH3K56, Ac α-tubulin) (U-373 cells [2]): robust and dose-dependent increase | sub-G1 fraction (U-373 cells [3]): did not increase the sub-G1 fraction | effect on HDAC2 deacetylase activity (HDAC2): without effect
